From patent US7074743B1, “Herbicidal composition comprising 4-iodo-2-[3-(4-methoxy-6-methyl-1,3,5-triazin-2-yl)ureidosulfonyl]benzoic esters” (priority 1995, dated 2006)

What was measured:
Type in all cases: in vivo
Phalaris canariensis = test: Herbicidal action on PHACA, visual scoring vs untreated, post-emergence 2-4 leaf stage (greenhouse / field trials)
Procedure: (§1) The examples given below were performed in the greenhouse and, in some cases, in field trials.
(§2) The herbicides, or combinations, were applied in cereals after the weeds had emerged naturally using plot sprayers. After application, the results, such as damage to the crop plants and effect on broad-leaved weeds/grass weeds were assessed by means of visual scoring. The herbicidal action was assessed qualitatively and quantitatively by comparing untreated and treated plots on the basis of the effect on plant growth and the development of chloroses and necroses down to the complete destruction of the weeds (0–100%). The application was effected when the crop plants and weeds were in the 2–4 leaf stage. The test was evaluated approximately 4 weeks after application.
(§3) In the greenhouse experiments, the crop plants and broadleaved weeds/grass weeds were grown in No. 13 pots and treated in the 2–4 leaf stage. The pots were subsequently placed in the greenhouse under good growth conditions (temperature, atmospheric humidity, water supply).
(§4) The assessments were carried out similarly to those in the field trials, i.e. visual scoring of the treated plants in comparison with untreated control variants. These assessments were carried out 3 weeks after applying the test preparations and their combinations. The experiments had been set up in two replications.
(§5) To assess the combination effects, the activities of the individual components were added and compared with the activity of the mixtures in equal doses. It was frequently observed that the efficacies of the combinations exceeded the total of the individual activities.
(§6) In cases with less clear effects, the expected value was calculated using Colby's formula and compared with the empirically determined result. The calculated efficacy of a combination which is expected in theory is determined is using S.R. Colby's formula: “Calculation of synergistic and antagonistic responses of herbicide combinations”, Weeds 15 (1967), pages 20 to 22.
(§7) [formula] where • X=% damage caused by herbicide A at a rate of ×kg a.i./ha; • Y=% damage caused by herbicide B at a rate of y kg a.i./ha; • Z=% damage caused by a further herbicide C at a rate of z kg a.i./ha; • E=expected value, i.e. expected damage caused by herbicides A+B (or A+B+C) at x+y (or x+y+z) kg a.i./ha.
(§8) Synergistic effects were assumed to be when the empirical value exceeded the expected value. In the case of combinations with individual components with the same active substances, comparisons via the total formula were also possible.

Avena fatua = test: Herbicidal action on AVEFA, visual scoring vs untreated, post-emergence 2-4 leaf stage; conditions: Table 11
Procedure: as §1, §2, §3, §4, §5, §6, §7, §8

Centaurea cyanus = test: Herbicidal action on CENCY, visual scoring vs untreated, post-emergence 2-4 leaf stage
Procedure: as §1, §2, §3, §4, §5, §6, §7, §8

Abuthilon theophrastis = test: Herbicidal action on ABUTHE, visual scoring vs untreated, post-emergence 2-4 leaf stage; conditions: Table 12; 2.5 g of ai/ha
Procedure: as §1, §2
In the greenhouse experiments, the crop plants and broadleaved weeds/grass weeds were grown in No. 13 pots and treated in the 2–4 leaf stage. […]
In cases with less clear effects, the expected value was calculated using Colby's formula and compared with the empirically determined result. The calculated efficacy of a combination which is expected in theory is determined is using S.R. Colby's formula: “Calculation of synergistic and antagonistic responses of herbicide combinations”, Weeds 15 (1967), pages 20 to 22. […]

Lolium multiflorum = test: Herbicidal action on LOLMU, visual scoring vs untreated, post-emergence 2-4 leaf stage
Procedure: as §1, §2, §3, §4, §5, §6, §7, §8

Fallopia convolvulus = test: Herbicidal action on FALCO, visual scoring vs untreated, post-emergence 2-4 leaf stage
Procedure: as §1, §2, §3, §4, §5, §6, §7, §8

Work on `COC(=O)c1ccc(I)cc1S(=O)(=O)NC(=O)Nc1nc(C)nc(OC)n1.[Na]` [A), sodium salt of methyl 4-iodo-2-[3-(4-methoxy-6-methyl-1,3,5-triazin-2-yl)ureidosulfonyl]benzoate] yielded a PHACA % control (Phalaris canariensis; Table 2, 3 g of a.i./ha) of 0%, a PHACA % control (Phalaris canariensis; Table 2, 5 g of a.i./ha) of 15% and a PHACA % control (Phalaris canariensis; Table 2, 10 g of a.i./ha) of 35%. It also gave a PHACA % control (Phalaris canariensis; Table 2, 20 g of a.i./ha) of 53%, a PHACA % control (Phalaris canariensis; Table 3, 3 g of a.i./ha) of 0% and a PHACA % control (Phalaris canariensis; Table 3, 5 g of a.i./ha) of 15%. The PHACA % control (Phalaris canariensis; Table 3, 10 g of a.i./ha) was 35%, the PHACA % control (Phalaris canariensis; Table 3, 20 g of a.i./ha) was 53% and the AVEFA % control (Avena fatua; 5 g of a.i./ha) was 60%. For the same compound, the AVEFA % control (Avena fatua; 10 g of a.i./ha) was 80%, the CENCY % control (Centaurea cyanus; Table 6, 5 g of a.i./ha) was 0% and the CENCY % control (Centaurea cyanus; Table 6, 10 g of a.i./ha) was 30%. It also gave a CENCY % control (Centaurea cyanus; Table 6, 15 g of a.i./ha) of 60%, a CENCY % control (Centaurea cyanus; Table 9, 2.5 g of a.i./ha) of 30% and a CENCY % control (Centaurea cyanus; Table 9, 5 g of a.i./ha) of 43%. It also gave a CENCY % control (Centaurea cyanus; Table 9, 10 g of a.i./ha) of 58%, a CENCY % control (Centaurea cyanus; Table 9, 20 g of a.i./ha) of 78% and a CENCY % control (Centaurea cyanus; Table 10, 5 g of a.i./ha) of 0%. The CENCY % control (Centaurea cyanus; Table 10, 10 g of a.i./ha) was 30%, the CENCY % control (Centaurea cyanus; Table 10, 15 g of a.i./ha) was 60% and the ABUTHE % control (Abuthilon theophrastis) was 10%. It also gave an LOLMU % control (Lolium multiflorum; Table 2, 3 g of a.i./ha) of 0%, an LOLMU % control (Lolium multiflorum; Table 2, 5 g of a.i./ha) of 5% and an LOLMU % control (Lolium multiflorum; Table 2, 10 g of a.i./ha) of 10%. For the same compound, the LOLMU % control (Lolium multiflorum; Table 2, 20 g of a.i./ha) was 48%, the LOLMU % control (Lolium multiflorum; Table 3, 3 g of a.i./ha) was 0% and the LOLMU % control (Lolium multiflorum; Table 3, 5 g of a.i./ha) was 5%. It also gave an LOLMU % control (Lolium multiflorum; Table 3, 10 g of a.i./ha) of 10%, an LOLMU % control (Lolium multiflorum; Table 3, 20 g of a.i./ha) of 48% and an LOLMU % control (Lolium multiflorum; Table 5, 2.5 g of a.i./ha) of 68%. For the same compound, the LOLMU % control (Lolium multiflorum; Table 5, 5 g of a.i./ha) was 75%, the LOLMU % control (Lolium multiflorum; Table 5, 10 g of a.i./ha) was 83% and the FALCO % control (Fallopia convolvulus; Table 5, 2.5 g of a.i./ha) was 73%. It also gave an FALCO % control (Fallopia convolvulus; Table 5, 5 g of a.i./ha) of 85%, an FALCO % control (Fallopia convolvulus; Table 5, 10 g of a.i./ha) of 88% and an FALCO % control (Fallopia convolvulus; Table 5, 20 g of a.i./ha) of 97%. It also gave an FALCO % control (Fallopia convolvulus; Table 5, 40 g of a.i./ha) of 98%, an FALCO % control (Fallopia convolvulus; Table 5, 80 g of a.i./ha) of 99% and an FALCO % control (Fallopia convolvulus; Table 5, 160 g of a.i./ha) of 99%. It also gave an FALCO % control (Fallopia convolvulus; Table 9, 2.5 g of a.i./ha) of 73%, an FALCO % control (Fallopia convolvulus; Table 9, 5 g of a.i./ha) of 85% and an FALCO % control (Fallopia convolvulus; Table 9, 10 g of a.i./ha) of 88%. For the same compound, the FALCO % control (Fallopia convolvulus; Table 9, 20 g of a.i./ha) was 97% and the FALCO % control (Fallopia convolvulus; Table 9, 40 g of a.i./ha) was 98%.
